Assay results as given in article PMC6437697 (Journal of Medicinal Chemistry, 2019).

Experiments:
Test in all cases: KINOMEscan
Assay type in all cases: binding
Conditions in all cases: read-out: % control activity remaining
[1] = molecular target: T1, ABL1(T315I)-nonphosphorylated (Homo sapiens, UniProt P00519, T315I)
T1 construct: purchased Eurofins DiscoverX KINOMEscan

CSNK1G2 = molecular target: T2, CSNK1G2 (Homo sapiens, UniProt P78368)
T2 construct: purchased Eurofins DiscoverX KINOMEscan

DMPK = molecular target: T3, DMPK (Homo sapiens, UniProt Q09013)
T3 construct: purchased Eurofins DiscoverX KINOMEscan
T3 sequence (Q09013 1-629): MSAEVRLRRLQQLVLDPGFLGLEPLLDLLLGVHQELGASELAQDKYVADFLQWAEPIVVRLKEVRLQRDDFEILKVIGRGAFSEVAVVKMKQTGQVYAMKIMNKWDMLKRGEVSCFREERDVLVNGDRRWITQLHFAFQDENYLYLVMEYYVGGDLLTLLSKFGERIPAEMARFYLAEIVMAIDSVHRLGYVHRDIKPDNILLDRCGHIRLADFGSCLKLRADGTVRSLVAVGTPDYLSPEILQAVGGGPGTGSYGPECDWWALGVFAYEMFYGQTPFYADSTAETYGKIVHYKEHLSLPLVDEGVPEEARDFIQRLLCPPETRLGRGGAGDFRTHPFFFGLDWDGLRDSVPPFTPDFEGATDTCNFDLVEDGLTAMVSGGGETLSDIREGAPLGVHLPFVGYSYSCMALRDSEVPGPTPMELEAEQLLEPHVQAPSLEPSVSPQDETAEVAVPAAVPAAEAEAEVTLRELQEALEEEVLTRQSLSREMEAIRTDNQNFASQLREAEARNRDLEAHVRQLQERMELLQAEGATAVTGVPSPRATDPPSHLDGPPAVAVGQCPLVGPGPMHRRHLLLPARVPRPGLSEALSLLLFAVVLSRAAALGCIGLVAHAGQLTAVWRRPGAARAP

DMPK2 = molecular target: T4, DMPK2 (Homo sapiens, UniProt Q6DT37)
T4 construct: purchased Eurofins DiscoverX KINOMEscan
T4 sequence (Q6DT37 whole entry): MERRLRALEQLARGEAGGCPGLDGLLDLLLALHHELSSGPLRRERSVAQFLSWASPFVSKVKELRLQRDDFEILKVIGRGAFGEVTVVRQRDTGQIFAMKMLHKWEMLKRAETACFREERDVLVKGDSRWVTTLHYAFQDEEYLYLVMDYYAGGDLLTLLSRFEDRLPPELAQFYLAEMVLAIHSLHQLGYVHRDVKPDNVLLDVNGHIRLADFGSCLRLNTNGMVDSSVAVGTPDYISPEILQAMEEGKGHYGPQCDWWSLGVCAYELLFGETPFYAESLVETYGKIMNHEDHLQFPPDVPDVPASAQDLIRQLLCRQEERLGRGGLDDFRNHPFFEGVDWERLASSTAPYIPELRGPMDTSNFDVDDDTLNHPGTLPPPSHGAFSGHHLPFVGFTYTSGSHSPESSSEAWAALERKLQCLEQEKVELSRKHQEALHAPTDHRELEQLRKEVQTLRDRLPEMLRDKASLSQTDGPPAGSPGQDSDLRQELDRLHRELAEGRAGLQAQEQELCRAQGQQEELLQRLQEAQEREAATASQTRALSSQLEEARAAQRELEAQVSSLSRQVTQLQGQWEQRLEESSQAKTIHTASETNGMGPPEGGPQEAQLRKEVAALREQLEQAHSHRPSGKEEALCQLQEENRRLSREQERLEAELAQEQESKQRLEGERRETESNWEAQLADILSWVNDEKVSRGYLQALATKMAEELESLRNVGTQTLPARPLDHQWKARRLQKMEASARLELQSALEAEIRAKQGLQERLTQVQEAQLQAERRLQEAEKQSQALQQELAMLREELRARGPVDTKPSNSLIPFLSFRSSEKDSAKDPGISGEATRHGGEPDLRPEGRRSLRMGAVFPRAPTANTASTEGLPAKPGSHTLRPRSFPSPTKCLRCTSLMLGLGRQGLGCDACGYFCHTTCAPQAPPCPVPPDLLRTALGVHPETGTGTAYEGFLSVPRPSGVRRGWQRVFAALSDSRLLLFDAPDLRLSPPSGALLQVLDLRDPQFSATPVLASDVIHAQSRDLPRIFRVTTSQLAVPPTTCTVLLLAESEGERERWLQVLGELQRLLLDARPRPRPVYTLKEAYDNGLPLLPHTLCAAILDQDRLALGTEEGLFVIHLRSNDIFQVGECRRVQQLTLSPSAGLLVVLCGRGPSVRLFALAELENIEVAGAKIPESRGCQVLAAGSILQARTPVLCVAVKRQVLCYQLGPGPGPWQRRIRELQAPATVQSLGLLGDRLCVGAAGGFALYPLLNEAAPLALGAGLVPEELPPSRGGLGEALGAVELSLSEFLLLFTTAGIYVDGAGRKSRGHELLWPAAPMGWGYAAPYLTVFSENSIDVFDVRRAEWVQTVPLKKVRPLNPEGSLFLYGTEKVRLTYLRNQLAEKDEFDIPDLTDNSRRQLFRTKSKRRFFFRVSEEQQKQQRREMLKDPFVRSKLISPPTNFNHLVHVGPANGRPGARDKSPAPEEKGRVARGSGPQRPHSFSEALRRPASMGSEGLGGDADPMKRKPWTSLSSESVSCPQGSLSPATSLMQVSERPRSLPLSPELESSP

EGFR = molecular target: T5, EGFR (Homo sapiens, UniProt P00533)
T5 construct: purchased Eurofins DiscoverX KINOMEscan
T5 sequence (P00533 25-1210 limits assumed): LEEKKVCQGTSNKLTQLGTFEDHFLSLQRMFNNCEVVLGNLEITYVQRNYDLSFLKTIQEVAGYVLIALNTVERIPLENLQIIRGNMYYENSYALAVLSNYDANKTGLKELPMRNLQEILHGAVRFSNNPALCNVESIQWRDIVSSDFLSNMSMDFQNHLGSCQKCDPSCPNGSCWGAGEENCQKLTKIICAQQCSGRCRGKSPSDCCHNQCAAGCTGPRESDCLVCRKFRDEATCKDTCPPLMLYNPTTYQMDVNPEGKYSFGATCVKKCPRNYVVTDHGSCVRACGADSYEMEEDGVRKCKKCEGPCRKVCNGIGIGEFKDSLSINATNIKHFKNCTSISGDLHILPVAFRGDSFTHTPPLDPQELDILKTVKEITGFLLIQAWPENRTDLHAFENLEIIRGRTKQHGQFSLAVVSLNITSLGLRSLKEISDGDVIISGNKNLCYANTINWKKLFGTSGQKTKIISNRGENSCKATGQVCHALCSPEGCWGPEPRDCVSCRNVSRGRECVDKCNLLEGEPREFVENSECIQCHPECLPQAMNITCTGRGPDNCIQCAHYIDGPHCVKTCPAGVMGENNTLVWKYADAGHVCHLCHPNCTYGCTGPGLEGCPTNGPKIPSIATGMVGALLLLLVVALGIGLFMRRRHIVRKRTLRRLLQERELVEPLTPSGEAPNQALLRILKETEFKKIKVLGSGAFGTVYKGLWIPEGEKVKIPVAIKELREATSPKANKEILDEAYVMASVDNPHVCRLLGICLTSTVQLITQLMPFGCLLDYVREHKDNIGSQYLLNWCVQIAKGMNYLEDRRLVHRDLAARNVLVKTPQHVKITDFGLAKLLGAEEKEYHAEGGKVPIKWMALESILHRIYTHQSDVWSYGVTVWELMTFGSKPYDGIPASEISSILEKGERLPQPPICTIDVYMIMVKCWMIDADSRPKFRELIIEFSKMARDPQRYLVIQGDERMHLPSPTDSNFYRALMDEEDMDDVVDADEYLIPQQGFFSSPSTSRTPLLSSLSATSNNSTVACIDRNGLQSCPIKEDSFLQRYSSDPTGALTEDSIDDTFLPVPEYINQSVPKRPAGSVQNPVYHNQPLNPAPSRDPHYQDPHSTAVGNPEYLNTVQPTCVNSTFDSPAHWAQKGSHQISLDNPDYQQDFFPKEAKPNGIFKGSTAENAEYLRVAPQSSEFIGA

EPHA5 = molecular target: T6, EPHA5 (Homo sapiens, UniProt P54756)
T6 construct: purchased Eurofins DiscoverX KINOMEscan

[2] = molecular target: T7, JAK3(JH1domain-catalytic) (Homo sapiens, UniProt P52333)
T7 construct: JAK3(JH1domain-catalytic); purchased Eurofins DiscoverX KINOMEscan
T7 sequence (P52333 822-1124 limits assumed): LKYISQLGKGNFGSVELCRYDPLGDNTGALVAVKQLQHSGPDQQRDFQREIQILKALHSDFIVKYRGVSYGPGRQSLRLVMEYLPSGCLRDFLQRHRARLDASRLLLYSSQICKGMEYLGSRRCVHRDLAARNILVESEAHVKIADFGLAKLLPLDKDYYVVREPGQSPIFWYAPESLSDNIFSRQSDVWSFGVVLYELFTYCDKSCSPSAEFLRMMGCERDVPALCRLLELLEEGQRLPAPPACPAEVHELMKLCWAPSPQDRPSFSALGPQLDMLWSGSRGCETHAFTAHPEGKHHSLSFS

MAP4K3 = molecular target: T8, MAP4K3 (Homo sapiens, UniProt Q8IVH8)
T8 construct: purchased Eurofins DiscoverX KINOMEscan
T8 sequence (Q8IVH8 1-894): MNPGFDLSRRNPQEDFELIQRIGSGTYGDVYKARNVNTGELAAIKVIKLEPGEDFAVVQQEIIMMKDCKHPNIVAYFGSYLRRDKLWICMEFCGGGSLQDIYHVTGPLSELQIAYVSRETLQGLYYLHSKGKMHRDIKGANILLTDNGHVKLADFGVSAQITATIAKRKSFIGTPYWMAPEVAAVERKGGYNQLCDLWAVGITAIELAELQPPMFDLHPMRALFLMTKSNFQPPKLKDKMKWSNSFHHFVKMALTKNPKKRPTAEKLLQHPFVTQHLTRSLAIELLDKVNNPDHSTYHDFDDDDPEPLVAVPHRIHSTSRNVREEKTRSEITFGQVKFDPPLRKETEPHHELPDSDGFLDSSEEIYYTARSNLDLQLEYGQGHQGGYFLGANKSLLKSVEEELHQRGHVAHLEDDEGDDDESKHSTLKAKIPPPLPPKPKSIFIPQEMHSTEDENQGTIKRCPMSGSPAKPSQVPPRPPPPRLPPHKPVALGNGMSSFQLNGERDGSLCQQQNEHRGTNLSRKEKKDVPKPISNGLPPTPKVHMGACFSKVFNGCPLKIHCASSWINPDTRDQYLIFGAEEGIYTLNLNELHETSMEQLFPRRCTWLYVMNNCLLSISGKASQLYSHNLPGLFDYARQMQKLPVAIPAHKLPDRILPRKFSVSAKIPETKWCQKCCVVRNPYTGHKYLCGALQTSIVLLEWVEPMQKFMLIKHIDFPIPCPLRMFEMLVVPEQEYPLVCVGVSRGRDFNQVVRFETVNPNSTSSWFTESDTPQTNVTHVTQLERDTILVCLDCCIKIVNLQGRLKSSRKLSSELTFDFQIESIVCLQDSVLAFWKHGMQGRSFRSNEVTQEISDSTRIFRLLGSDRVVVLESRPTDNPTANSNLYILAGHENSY

MKNK1 = molecular target: T9, MKNK1 (Homo sapiens, UniProt Q9BUB5)
T9 construct: purchased Eurofins DiscoverX KINOMEscan
T9 sequence (Q9BUB5 whole entry): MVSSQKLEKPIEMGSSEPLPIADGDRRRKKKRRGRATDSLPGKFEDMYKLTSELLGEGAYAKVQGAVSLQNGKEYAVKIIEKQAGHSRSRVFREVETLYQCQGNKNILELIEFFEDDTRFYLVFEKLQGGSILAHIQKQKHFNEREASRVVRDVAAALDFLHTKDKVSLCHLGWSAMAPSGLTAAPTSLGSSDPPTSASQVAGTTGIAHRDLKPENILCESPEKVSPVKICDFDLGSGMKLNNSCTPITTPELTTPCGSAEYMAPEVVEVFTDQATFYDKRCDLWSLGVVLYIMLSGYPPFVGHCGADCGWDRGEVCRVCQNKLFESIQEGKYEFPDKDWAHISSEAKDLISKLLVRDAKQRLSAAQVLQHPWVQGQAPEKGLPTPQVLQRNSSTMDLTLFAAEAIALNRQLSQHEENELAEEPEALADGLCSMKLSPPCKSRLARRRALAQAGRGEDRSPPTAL

PFTK1 = molecular target: T10, PFTK1 (Homo sapiens, UniProt O94921)
T10 construct: purchased Eurofins DiscoverX KINOMEscan
T10 sequence (O94921 whole entry): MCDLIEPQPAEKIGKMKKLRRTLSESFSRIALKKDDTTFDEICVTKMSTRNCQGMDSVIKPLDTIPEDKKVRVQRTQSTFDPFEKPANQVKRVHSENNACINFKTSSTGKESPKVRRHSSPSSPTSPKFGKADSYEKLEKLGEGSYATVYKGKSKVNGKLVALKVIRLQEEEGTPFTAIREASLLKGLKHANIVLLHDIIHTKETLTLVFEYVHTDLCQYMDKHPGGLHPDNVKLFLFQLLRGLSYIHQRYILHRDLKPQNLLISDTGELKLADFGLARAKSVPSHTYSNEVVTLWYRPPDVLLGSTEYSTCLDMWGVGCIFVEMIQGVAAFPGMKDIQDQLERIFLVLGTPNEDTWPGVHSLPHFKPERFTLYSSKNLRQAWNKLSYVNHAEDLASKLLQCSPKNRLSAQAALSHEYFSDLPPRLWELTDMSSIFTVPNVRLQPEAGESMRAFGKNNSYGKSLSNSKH

PIK3CA(I800L) = molecular target: T11, PIK3CA(I800L) (Homo sapiens, UniProt P42336, I800L)
T11 construct: purchased Eurofins DiscoverX KINOMEscan

PIM1 = molecular target: T12, PIM1 (Homo sapiens, UniProt P11309)
T12 construct: purchased Eurofins DiscoverX KINOMEscan
T12 sequence (P11309 whole entry): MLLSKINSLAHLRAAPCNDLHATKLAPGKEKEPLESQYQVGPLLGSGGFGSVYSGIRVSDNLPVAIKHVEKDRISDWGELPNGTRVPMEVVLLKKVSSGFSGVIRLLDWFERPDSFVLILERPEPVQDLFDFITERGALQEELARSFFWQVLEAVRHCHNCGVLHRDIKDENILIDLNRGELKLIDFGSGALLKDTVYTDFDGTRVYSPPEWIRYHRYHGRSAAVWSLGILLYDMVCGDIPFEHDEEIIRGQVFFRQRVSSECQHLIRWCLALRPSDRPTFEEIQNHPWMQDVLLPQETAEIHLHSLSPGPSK

QSK = molecular target: T13, QSK (Homo sapiens, UniProt Q9Y2K2)
T13 construct: purchased Eurofins DiscoverX KINOMEscan

RIOK3 = molecular target: T14, RIOK3 (Homo sapiens, UniProt O14730)
T14 construct: purchased Eurofins DiscoverX KINOMEscan
T14 sequence (O14730 1-519): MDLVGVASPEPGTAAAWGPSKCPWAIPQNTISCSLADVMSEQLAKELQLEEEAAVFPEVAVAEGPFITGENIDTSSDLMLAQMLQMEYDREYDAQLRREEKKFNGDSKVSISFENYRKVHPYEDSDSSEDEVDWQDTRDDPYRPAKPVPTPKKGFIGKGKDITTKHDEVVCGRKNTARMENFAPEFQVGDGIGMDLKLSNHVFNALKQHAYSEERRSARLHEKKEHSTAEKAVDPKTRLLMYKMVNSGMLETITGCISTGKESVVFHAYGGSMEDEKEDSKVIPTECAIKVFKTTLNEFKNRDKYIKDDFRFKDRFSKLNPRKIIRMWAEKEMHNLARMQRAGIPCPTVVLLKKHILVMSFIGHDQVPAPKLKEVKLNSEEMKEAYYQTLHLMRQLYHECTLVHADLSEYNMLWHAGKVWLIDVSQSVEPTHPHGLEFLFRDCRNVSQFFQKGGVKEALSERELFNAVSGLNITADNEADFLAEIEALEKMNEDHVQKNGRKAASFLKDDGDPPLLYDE

TNIK = molecular target: T15, TNIK (Homo sapiens, UniProt Q9UKE5)
T15 construct: purchased Eurofins DiscoverX KINOMEscan

WEE1 = molecular target: T16, WEE1 (Homo sapiens, UniProt P30291)
T16 construct: purchased Eurofins DiscoverX KINOMEscan
T16 sequence (P30291 whole entry): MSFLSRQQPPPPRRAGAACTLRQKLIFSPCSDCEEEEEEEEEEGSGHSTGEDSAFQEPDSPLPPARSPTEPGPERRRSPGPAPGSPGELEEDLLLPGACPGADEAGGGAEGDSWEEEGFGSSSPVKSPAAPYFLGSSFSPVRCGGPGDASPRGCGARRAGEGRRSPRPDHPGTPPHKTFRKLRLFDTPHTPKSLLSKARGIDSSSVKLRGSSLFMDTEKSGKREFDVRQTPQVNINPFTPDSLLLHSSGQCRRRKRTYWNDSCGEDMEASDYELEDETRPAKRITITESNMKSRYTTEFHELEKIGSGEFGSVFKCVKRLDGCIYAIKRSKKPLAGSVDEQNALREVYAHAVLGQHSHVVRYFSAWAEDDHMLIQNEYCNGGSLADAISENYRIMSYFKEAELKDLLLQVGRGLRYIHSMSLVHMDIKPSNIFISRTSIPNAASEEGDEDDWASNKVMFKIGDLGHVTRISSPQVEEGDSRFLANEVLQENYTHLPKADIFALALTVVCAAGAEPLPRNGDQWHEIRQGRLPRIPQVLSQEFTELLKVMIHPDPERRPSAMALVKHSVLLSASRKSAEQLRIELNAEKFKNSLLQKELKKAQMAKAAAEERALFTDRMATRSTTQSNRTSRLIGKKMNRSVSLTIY

Row | SMILES | remaining binding at 1 µM [1] [%] | remaining binding at 1 µM (CSNK1G2) [%] | remaining binding at 1 µM (DMPK) [%] | remaining binding at 1 µM (DMPK2) [%] | remaining binding at 1 µM (EGFR) [%] | remaining binding at 1 µM (EPHA5) [%] | remaining binding at 1 µM [2] [%] | remaining binding at 1 µM (MAP4K3) [%] | remaining binding at 1 µM (MKNK1) [%] | remaining binding at 1 µM (PFTK1) [%] | remaining binding at 1 µM (PIK3CA(I800L)) [%] | remaining binding at 1 µM (PIM1) [%] | remaining binding at 1 µM (QSK) [%] | remaining binding at 1 µM (RIOK3) [%] | remaining binding at 1 µM (TNIK) [%] | remaining binding at 1 µM (WEE1) [%]
1 | Clc1cc(NCC2CC2)c2ncc(-c3ccc4[nH]ncc4c3)n2n1 [compound 2, 6-Chloro-N-(cyclopropylmethyl)-3-(1H-indazol-5-yl)imidazo[1,2-b]pyridazin-8-amine] | 76 | 100 | 84 | 62 | 71 | 99 | 100 | 71 | 82 | 87 | 83 | 100 | 78 | 31 | 80 | 100
2 | O=C(CN1CCOCC1)N[C@H]1CC[C@H](Nc2cc(Cl)nn3c(-c4ccc5[nH]ncc5c4)cnc23)CC1 [compound 26] | 38 | 95 | 99 | 81 | 80 | 93 | 100 | 92 | 88 | 99 | 88 | 68 | 82 | 32 | 47 | 100
3 | CN1CCC(CNc2cc(Cl)nn3c(-c4cc5nc(Nc6ccccc6)[nH]c5cc4F)cnc23)CC1 [compound 31, 6-Chloro-3-(6-fluoro-2-(phenylamino)-1H-benzo[d]imidazol-5-yl)-N-((1-methylpiperidin-4-yl)methyl)imidazo[1,2-b]pyridazin-8-amine] | 71 | 96 | 89 | 100 | 100 | 99 | 82 | 99 | 83 | 96 | 58 | 95 | 100 | 94 | 97 | 100
